Assay results taken from ChEMBL document CHEMBL1201862, “PubChem BioAssay data set” (2004).
Calls of active or inactive are those of the source.

How the values were obtained:
[1] = inhibitors of PGC1a acetylation in cells, dose response, cell-based, cherry-picked samples (AID 720514); type: functional;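 further: potency may reflect raised or lowered acetylation signal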
cells [2] = type: functional, cell-based; details: HEK-CNG
cells [3] = type: functional
Galanin receptor type 3 = molecular target: T1, Galanin receptor type 3 (Homo sapiens, UniProt O60755); test: Fluorescence-based cell-based primary high throughput dose response assay to identify antagonists of the Galanin Receptor 3 (GalR3).; type: functional
T1 sequence (O60755 whole entry): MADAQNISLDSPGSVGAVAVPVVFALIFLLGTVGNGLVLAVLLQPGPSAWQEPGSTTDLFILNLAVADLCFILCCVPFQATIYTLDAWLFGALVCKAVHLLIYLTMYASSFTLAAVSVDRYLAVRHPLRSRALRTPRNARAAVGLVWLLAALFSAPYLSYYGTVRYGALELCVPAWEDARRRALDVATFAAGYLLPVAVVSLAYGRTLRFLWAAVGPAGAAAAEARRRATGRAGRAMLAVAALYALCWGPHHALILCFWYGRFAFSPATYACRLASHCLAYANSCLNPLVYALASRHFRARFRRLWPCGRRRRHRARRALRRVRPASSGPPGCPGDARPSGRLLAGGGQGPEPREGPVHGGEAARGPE

[4] = Luminescence Cell-Based Dose Confirmation HTS to Identify Inhibitors of Platelet Dense Granule Release. [Related pubchem assays: 1663 (Primary HTS), 1678 (Summary of Project)]; type: functional
[5] = molecular target: Luciferin 4-monooxygenase (Photinus pyralis, UniProt P08659); test: firefly luciferase enzyme inhibitors, dose response, biochemical, luminescence (AID 1891)
Luciferin 4-monooxygenase, sequence (P08659 whole entry): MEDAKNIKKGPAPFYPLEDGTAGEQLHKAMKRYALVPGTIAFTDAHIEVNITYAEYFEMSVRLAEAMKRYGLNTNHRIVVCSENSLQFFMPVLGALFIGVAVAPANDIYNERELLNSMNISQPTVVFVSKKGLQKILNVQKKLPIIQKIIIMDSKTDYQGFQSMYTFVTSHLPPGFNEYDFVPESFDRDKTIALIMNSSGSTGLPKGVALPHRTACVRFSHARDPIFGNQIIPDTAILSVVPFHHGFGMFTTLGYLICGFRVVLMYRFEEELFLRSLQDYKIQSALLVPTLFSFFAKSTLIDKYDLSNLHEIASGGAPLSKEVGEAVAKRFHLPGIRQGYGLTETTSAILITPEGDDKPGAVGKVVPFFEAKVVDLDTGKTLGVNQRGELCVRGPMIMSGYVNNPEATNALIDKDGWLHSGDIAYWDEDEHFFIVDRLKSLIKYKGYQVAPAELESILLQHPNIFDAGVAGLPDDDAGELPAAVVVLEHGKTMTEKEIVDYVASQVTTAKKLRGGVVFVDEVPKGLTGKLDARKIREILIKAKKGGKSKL

[6] = MC4R antagonists, dose response, counter-screen for LGR2 antagonist project, cell-based, plate reader, cherry pick (AID 743444); type: functional;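 further: transfected HEK 293 cells stimulated with alpha-MSH peptide; potency of inhibitors of the alpha-MSH evoked signal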
[7] = HepG2 cell cytotoxicity, dose response, cytotoxicity control, plate reader, cherry-pick, antagonist series (AID 743416); type: functional, cell-based
cells [8] = test: cells
[9] = Luminescence-based cell-based high throughput dose response assay to identify activators of the DAF-12 from the parasite S. stercoralis (ssDAF-12).; type: functional
[10] = molecular target: T2, Oxysterols receptor LXR-beta (Homo sapiens, UniProt P55055); type: functional, cell-based;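 further: Cell-based luminescence dose-response assay of agonist activity at LXR, run as a confirmatory counterscreen to a daf-12 agonist screen; HEK293 cells with Gal4-LXR fusion and GAL4-driven luciferase reporter; agonist potency from rising luciferase signal of a Gal4-LXR reporter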
T2 sequence (P55055 whole entry): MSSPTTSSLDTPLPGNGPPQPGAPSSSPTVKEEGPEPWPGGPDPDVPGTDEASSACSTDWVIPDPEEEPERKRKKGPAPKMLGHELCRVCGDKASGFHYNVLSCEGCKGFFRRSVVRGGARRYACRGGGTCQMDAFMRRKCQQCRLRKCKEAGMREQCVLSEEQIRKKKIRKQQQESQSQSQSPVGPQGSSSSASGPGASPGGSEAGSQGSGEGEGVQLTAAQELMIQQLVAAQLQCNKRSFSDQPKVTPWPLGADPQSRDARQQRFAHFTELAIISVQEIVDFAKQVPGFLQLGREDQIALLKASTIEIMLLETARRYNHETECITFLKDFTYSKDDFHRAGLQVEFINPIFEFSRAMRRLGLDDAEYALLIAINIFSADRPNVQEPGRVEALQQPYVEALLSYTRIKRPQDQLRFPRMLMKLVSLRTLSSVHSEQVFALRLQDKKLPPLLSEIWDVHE

[11] = LGR2 antagonists, dose response, cell-based, HEK293, CRE-luciferase reporter, cherry pick, set 2 (AID 743343); type: functional;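 further: transfected cells were stimulated with diluted bursicon conditioned medium after compound addition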
[12] = A549 cell cytotoxicity, dose response, cytotoxicity control, plate reader, cherry-pick, antagonist series (AID 743412); type: functional, cell-based
[13] = HEK293 cell cytotoxicity, dose response, cytotoxicity control, plate reader, cherry-picked samples (AID 743446); type: functional, cell-based
[14] = molecular target: T3, Heat shock factor protein 1 (Mus musculus, UniProt P38532); test: HSF1 potentiators in luciferase reporter cells, confirmation, cell-based, NIH3T3, luminescence, dose retest (AID 435004); type: functional;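 further: stress induced by proteasome inhibitor MG132 added 30 min after compound; luciferase reporter driven by HSF1 response element in NIH3T3 cells; actives raise luminescence as potentiators of the MG132 stress response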
T3 sequence (P38532 whole entry): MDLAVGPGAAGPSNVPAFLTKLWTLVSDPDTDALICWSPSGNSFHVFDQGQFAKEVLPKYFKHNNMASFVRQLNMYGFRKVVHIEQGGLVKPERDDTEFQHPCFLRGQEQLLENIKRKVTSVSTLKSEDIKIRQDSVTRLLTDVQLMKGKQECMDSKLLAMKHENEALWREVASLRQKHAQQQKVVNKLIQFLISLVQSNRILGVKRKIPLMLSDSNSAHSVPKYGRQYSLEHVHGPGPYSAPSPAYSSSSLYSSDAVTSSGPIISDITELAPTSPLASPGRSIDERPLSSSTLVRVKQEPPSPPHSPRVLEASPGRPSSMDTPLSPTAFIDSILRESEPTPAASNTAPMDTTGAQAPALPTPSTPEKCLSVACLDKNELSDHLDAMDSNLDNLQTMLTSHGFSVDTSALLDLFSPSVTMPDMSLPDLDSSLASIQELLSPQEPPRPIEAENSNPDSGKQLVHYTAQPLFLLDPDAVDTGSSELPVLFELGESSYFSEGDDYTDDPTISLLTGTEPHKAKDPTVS

[15] = molecular target: T4, Replicative DNA helicase DnaB (Mycobacterium tuberculosis, UniProt P9WMR3); test: DnaB intein splicing inhibitors, dose response, biochemical, cell-free fluorescence (AID 449749); type: functional
T4 sequence (P9WMR3 whole entry): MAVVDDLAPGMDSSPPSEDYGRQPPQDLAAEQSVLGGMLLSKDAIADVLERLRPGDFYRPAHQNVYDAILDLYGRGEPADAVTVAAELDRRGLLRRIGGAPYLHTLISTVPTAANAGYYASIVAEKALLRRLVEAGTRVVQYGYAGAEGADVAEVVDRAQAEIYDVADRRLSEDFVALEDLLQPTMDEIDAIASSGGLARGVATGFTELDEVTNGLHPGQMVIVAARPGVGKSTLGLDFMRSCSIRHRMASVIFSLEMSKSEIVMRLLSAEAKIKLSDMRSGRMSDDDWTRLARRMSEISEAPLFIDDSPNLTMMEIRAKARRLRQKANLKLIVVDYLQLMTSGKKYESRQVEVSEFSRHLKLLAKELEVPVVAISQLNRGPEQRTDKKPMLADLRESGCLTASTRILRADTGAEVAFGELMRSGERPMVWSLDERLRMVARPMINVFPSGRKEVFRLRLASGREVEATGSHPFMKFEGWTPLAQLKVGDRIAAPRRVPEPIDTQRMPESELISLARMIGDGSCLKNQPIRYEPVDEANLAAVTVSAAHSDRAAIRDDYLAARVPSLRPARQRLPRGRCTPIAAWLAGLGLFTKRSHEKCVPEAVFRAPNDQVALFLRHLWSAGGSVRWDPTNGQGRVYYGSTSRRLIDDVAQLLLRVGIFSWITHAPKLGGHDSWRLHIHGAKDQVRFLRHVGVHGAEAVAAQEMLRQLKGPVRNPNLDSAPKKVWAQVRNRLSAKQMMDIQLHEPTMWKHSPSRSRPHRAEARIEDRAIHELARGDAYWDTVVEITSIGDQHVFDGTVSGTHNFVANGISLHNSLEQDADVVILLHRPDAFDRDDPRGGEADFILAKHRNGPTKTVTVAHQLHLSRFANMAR

Protein RecA = molecular target: T5, Protein RecA (Mycobacterium tuberculosis, UniProt P9WHJ3); test: Fluorescence Cell-Free Homogeneous Dose Retest to Identify Inhibitors of RecA-Intein Splicing Activity. [Related pubchem assays (depositor defined):AID2097, AID2223, AID489010, AID492950]; type: functional
T5 sequence (P9WHJ3 whole entry): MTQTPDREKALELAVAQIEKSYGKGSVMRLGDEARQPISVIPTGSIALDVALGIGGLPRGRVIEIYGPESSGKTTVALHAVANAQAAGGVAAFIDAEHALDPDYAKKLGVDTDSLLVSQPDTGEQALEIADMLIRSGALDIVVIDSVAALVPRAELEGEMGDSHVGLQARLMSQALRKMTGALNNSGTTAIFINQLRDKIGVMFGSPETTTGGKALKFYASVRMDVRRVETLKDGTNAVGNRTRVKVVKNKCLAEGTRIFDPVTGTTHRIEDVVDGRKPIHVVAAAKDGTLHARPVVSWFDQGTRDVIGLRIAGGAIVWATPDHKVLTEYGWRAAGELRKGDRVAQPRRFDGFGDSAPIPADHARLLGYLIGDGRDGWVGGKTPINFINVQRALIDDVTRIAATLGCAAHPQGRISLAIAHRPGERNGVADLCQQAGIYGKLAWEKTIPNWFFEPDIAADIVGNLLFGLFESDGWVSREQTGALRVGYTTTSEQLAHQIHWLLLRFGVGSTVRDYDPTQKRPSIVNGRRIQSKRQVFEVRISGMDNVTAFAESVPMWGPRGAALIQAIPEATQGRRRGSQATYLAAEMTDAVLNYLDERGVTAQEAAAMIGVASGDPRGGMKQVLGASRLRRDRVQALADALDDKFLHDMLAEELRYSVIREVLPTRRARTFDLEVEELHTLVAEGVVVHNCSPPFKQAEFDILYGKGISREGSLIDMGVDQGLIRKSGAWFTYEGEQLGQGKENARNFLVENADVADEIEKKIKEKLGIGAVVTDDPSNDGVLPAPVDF

[16] = C. albicans growth with fluconazole, confirmation, fluorescence, retest (AID 2467); type: functional, cell-based
[17] = cytotoxicity toward NIH3T3 fibroblasts, dose response, counter-screen, cell-based, ATP luminescence, mouse fibroblasts (AID 2010); type: functional;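 further: cells exposed to compound for about 90 hours before reading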
[18] = NIH-3T3 fibroblast cytotoxicity, dose response, cytotoxicity control, cell-based, fluorescence, Alamar Blue, secondary assay (AID 2327); type: functional;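 further: NIH-3T3 mouse fibroblasts cultured with fluconazole at 8 µg/mL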
[19] = inhibitors of intracellular T. cruzi replication, confirmation, NIH3T3 host cells, beta-gal luminescence (AID 2044); type: functional, cell-based;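 further: intracellular parasites grown in NIH/3T3 mouse fibroblasts as host cells; luminescent beta-galactosidase reporter signal from transgenic T. cruzi replicating inside host cells; inhibitors lower the luminescence signal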
[20] = THP-1 cell cytotoxicity, dose response, cytotoxicity control for non-replicating M. tuberculosis project (AID 489025); type: functional
Major prion protein = Major prion protein (Homo sapiens, UniProt P04156); type: functional, cell-based
HEK293 = test: inhibitors of LMP1-driven NF-kB reporter, dose response, cell-based, HEK293, luciferase, cherry-pick (AID 588343); type: functional; details: Homo sapiens
Paired box protein Pax-8 = Paired box protein Pax-8 (Homo sapiens, UniProt Q06710); test: inhibitors of PAX8-driven TPO luciferase reporter, dose response, RMG-I cells, cherry-pick (AID 687027); type: functional, cell-based;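 further: luciferase reporter driven by Pax8 target thyroperoxidase promoter measured by SteadyGlo luminescence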
Paired box protein Pax-8, sequence (Q06710 whole entry): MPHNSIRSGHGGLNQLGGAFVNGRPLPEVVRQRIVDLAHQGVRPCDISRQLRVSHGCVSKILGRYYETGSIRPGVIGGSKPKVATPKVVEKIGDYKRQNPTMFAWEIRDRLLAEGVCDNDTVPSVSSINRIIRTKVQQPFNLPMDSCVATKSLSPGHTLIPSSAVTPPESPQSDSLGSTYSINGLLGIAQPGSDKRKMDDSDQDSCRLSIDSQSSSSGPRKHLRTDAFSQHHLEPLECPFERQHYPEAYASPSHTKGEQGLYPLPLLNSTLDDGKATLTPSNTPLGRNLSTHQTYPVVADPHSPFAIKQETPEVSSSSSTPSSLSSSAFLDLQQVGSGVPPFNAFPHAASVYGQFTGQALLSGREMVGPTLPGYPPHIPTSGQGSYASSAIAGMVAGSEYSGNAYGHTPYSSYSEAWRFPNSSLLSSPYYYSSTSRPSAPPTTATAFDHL

[21] = HeLa 2N DNA content increase, dose response, cell-based, IC50 (AID 1117349); type: functional
[22] = HeLa 4N DNA content increase, dose response, cell-based, IC50 (AID 1117351); type: functional

Structure (SMILES): C[C@@H]1CN([C@@H](C)CO)S(=O)(=O)c2ccc(-c3ccc(C#N)cc3)cc2O[C@H]1CN(C)C(=O)CN(C)C
- AC50 [1]: 26.5 µM (active)

Structure (SMILES): O=C(COc1ccc2ccccc2c1)Nc1ccncc1
- EC50 (cells [2]): > 29.9 µM (inactive)
- IC50 (cells [3]): 6.95 µM (active)
- IC50 (Galanin receptor type 3): 1.77 µM (active)

Structure (SMILES): O=C(NCCO)c1nsnc1NCCCl
- EC50 (cells [2]): > 29.9 µM (inactive)
- IC50 (Galanin receptor type 3): > 29.9 µM (inactive)

Structure (SMILES): COc1ccc(C2CC(=O)Nc3sc(=N)c4c(N)c(C#N)c(N)nc4c32)cc1OC (stereo not drawn)
- EC50 [4]: 0.706 µM (active)
- EC50 (cells [2]): > 29.9 µM (inactive)
- EC50 [5]: > 112 µM (not active)
- IC50 (Galanin receptor type 3): 2.28 µM (active)

Structure (SMILES): C[C@@H]1CN([C@H](C)CO)C(=O)CCCn2nncc2CO[C@H]1CN(C)C(=O)Nc1cccc2ccccc12
- AC50 [6]: 34.8 µM (active)
- AC50 [7]: > 52 µM (inactive)

Structure (SMILES): Nc1ccccc1-n1nc2ccc3ccccc3c2n1
- EC50 (cells [8]): > 67.5 µM (inactive)
- IC50 [9]: > 67.5 µM (inactive)
- EC50 [10]: > 67.5 µM (inactive)

Structure (SMILES): COc1ccc(-c2cc3nc(NCc4ccc(N(C)C)cc4)n(C)c(=O)c3s2)cc1OC
- AC50 [11]: 31.3 µM (active)
- AC50 [12]: 36 µM (active)
- AC50 [6]: 39 µM (active)
- AC50 [7]: 45.2 µM (active)
- AC50 [13]: 3.28 µM (active)

Structure (SMILES): Cc1cc2c(c(/C=C/C(=O)c3ccccc3)c1)OC1(C=C2)Oc2ccccc2C(=O)N1C (stereo not drawn)
- AC50 [1]: 2.26 µM (active)
- EC50 [14]: 3.56 µM (active)

Structure (SMILES): Cc1noc2ncnc(Sc3ccc(Br)cc3)c12
- AC50 [15]: 4.02 µM (active)
- EC50 (Protein RecA): 16.2 µM (active)
- AC50 [7]: 25.4 µM (active)
- EC50 [16]: > 38 µM (not active)
- EC50 [17]: > 60 µM (inconclusive)
- EC50 [18]: 7.6 µM (inconclusive)
- EC50 [19]: 1.96 µM (active)
- AC50 [13]: > 52 µM (inactive)
- CC50 [20]: > 40 µM (active)
- IC50 (cells [3]): 11.6 µM (active)
- EC50 [14]: 6.64 µM (active)

Structure (SMILES): O=C(Cc1ccccn1)NCC[C@H]1CC[C@@H](NC(=O)Nc2ccc(C(F)(F)F)cc2)[C@@H](CO)O1
- AC50 [1]: 34.6 µM (active)

Structure (SMILES): CC(Sc1ccc2ccccc2n1)C(=O)O (stereo not drawn)
- IC50 (Major prion protein): 1.88 µM (active)

Structure (SMILES): COc1ccc(-c2csc3ncnc(Sc4nnnn4C)c23)cc1
- AC50 [11]: 17.8 µM (active)
- AC50 (HEK293): 8.04 µM (active)
- AC50 [12]: 26.8 µM (active)
- AC50 [6]: 20.8 µM (active)
- AC50 (Paired box protein Pax-8): 4.92 µM (active)
- AC50 [13]: 19.8 µM (active)

Structure (SMILES): [O-][n+]1ccccc1SSc1cccc[n+]1[O-] [DIPYRITHIONE]
- IC50 [21]: > 10 µM (inactive)
- IC50 [22]: > 10 µM (inactive)
